Like-named read-outs stand apart in the source and are kept apart here. A value given as a limit tells only on which side of the number the result lay.

Assay [1] concerns the target EGFR WT (Homo sapiens (Human), UniProt P00533). In words: ErbB enzyme assay (CisBio HTRF-KinEASE-TK), EGFR WT. It is filed as biochemical. The following applies: ATP at Km (25 μM), 1 h incubation. The gist of the method:
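Compounds, serially diluted three-fold, were incubated with enzyme for 1 h at ambient temperature. Detection reagents were then added for a further hour, and the 655/620 nm HTRF ratio was normalised to uninhibited and pre-quenched controls. IC50 was fitted with a four-parameter logistic model.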

Assay [2] deals with ErbB2 V777L (Homo sapiens (Human), UniProt P04626, V777L). The experiment in a line: ErbB enzyme assay (CisBio HTRF-KinEASE-TK), ErbB2 V777L. In kind it is biochemical. How it is done:
In vitro enzyme assays based on CisBio HTRF-KinEASE-TK technology were used to determine compound potencies. […] After another 1 h incubation at ambient temperature, the extent of substrate phosphorylation was determined using a PerkinElmer EnVision multimode plate reader via time-resolved fluorescence dual wavelength detection. The percent of control (POC) was calculated using the ratio of emission at […] to the emission at 620 nm. One hundred POC was determined using DMSO only controls (no test compounds present) and zero POC was determined using pre-quenched controls reactions. A 4-parameter logistic equation was fit to the POC values as a function of the test compound concentration and the IC50 value was determined as the point where the curve crossed 50 POC.
On the technique in general: In TR-FRET formats the signal depends on donor and acceptor labels being close together.

[3] abbreviates: ErbB2 V777L enzyme, ATP at Km (110 μM), 1 h incubation.

EGFR WT, sequence (P00533 25-1210): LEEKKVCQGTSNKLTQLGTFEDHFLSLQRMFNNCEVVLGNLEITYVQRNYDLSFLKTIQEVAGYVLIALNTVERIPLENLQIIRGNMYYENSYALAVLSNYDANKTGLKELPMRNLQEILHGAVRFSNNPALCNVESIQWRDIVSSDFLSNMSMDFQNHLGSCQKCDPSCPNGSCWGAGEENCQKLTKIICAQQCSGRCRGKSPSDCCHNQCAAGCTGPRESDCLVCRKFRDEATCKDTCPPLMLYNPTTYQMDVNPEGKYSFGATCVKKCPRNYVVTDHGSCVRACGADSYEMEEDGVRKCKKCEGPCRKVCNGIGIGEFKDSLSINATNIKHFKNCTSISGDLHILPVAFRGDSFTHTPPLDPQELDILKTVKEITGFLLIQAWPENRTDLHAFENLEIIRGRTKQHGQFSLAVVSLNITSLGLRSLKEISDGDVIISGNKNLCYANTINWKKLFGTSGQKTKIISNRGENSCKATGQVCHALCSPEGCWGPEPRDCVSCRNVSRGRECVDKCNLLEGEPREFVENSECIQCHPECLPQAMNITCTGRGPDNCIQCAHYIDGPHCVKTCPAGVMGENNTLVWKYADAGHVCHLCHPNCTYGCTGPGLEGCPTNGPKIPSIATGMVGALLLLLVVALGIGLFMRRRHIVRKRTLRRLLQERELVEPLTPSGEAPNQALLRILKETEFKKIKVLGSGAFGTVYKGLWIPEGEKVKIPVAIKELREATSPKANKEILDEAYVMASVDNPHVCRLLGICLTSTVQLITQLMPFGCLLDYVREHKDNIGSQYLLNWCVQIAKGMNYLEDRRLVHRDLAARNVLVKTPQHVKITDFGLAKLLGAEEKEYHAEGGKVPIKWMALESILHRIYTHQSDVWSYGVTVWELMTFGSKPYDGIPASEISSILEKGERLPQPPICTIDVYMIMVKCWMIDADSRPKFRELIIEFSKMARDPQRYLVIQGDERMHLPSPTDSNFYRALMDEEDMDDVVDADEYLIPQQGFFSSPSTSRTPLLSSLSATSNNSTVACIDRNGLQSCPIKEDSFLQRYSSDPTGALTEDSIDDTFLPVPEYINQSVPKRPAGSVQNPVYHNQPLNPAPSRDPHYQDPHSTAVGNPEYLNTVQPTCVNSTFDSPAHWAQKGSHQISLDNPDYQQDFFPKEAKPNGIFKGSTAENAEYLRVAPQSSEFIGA
ErbB2 V777L, sequence (P04626 23-1255 V777L): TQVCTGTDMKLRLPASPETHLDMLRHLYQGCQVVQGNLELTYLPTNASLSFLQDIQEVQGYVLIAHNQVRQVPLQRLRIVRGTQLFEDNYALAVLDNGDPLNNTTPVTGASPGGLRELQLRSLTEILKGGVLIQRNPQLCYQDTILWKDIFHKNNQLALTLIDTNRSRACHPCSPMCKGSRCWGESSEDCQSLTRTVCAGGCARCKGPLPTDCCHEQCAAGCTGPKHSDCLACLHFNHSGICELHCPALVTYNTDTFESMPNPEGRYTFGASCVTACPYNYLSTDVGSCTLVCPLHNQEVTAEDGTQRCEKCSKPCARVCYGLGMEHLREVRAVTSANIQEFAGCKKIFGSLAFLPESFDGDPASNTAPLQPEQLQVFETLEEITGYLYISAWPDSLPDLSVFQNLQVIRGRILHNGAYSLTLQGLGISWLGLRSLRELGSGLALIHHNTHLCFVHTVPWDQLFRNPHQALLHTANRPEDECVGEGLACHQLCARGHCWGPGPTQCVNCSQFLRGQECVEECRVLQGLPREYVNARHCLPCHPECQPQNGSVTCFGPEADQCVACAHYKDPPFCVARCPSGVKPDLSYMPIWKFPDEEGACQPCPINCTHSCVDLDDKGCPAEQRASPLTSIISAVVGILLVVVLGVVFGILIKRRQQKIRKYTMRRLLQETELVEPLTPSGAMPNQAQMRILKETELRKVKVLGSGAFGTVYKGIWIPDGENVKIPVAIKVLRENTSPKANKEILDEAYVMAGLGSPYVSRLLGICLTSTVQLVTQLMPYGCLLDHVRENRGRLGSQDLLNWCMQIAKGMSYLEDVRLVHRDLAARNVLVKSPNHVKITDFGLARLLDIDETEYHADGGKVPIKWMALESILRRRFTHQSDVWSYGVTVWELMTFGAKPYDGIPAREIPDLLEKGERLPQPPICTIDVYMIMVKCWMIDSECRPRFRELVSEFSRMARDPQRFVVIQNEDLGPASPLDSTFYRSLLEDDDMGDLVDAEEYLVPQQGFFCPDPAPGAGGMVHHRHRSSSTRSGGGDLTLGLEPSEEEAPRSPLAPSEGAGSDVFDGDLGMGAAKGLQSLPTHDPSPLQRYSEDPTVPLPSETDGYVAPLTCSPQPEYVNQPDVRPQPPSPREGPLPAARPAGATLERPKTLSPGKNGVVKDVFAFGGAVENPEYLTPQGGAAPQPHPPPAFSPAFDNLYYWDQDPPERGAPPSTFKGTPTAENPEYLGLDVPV

As to `C=CC(=O)N1CCN(c2ncc3ncnc(Nc4ccc(Oc5ccc6c(c5)ncn6C(F)F)c(C)c4F)c3n2)C[C@H]1C` [Compound 148, (R)-1-(4-(8-((4-((1-(difluoromethyl)-1H-benzo[d]imidazol-5-yl)oxy)-2-fluoro-3-methylphenyl)amino)pyrimido[5,4-d]pyrimidin-2-yl)-2-methylpiperazin-1-yl)prop-2-en-1-one], the figures for the concentration for half-maximal inhibition (IC50) in assay [1] and in assay [2] were 100 to 500 nM and 50 to 100 nM, respectively. `C=CC(=O)N[C@H]1CN(c2ccc3ncnc(Nc4ccc(Oc5ccc6c(c5)nnn6C)c(C)c4)c3n2)CC(F)(F)C1` [Compound 342, (R)-N-(5,5-difluoro-1-(4-((3-methyl-4-((1-methyl-1H-benzo[d][1,2,3]triazol-5-yl)oxy)phenyl)amino)pyrido[3,2-d]pyrimidin-6-yl)piperidin-3-yl)acrylamide]: the IC50 (as a rule, the concentration that gives 50% inhibition) in assay [1] fell in the range of 500 to 1000 nM; in assay [2], 100 to 500 nM. The corresponding values for `C=CC(=O)N1C[C@@H](C)N(c2ncc3ncnc(Nc4ccc(Oc5ccc6c(c5)nnn6C)c(C)c4)c3n2)C[C@H]1C` [Compound 186, 1-((2R,5R)-2,5-dimethyl-4-(8-((3-methyl-4-((1-methyl-1H-benzo[d][1,2,3]triazol-5-yl)oxy)phenyl)amino)pyrimido[5,4-d]pyrimidin-2-yl)piperazin-1-yl)prop-2-en-1-one] are no less than 1000 nM and 100 to 500 nM. Regarding `C=CC(=O)N1CCN(c2ncc3ncnc(Nc4cc(C)c(Oc5cc(F)c6c(c5)nnn6C)cc4OC)c3n2)C[C@H]1C` [Compound 166, (R)-1-(4-(8-((4-((7-fluoro-1-methyl-1H-benzo[d][1,2,3]triazol-5-yl)oxy)-2-methoxy-5-methylphenyl)amino)pyrimido[5,4-d]pyrimidin-2-y1)-2-methylpiperazin-1-yl)prop-2-en-1-one], in assay [2] (setting [3]), the IC50 is 500 to 1000 nM.

For `C=CC(=O)N1CCCN(c2ccc3ncnc(Nc4ccc(Oc5ccc6c(c5)nnn6C)c(C)c4)c3n2)CC1` [Compound 353, 1-(4-(4-((3-methyl-4-((1-methyl-1H-benzo[d][1,2,3]triazol-5-yl)oxy)phenyl)amino)pyrido[3,2-d]pyrimidin-6-yl)-1,4-diazepan-1-yl)prop-2-en-1-one], in assay [2] (setting [3]), the IC50 lay within 100 to 500 nM.

In assay [1], `C=CC(=O)N1[C@H](C)CN(c2ncc3ncnc(Nc4ccc(Oc5ccc6c(c5)nnn6C)c(C)c4)c3n2)C[C@H]1C` [Compound 183, 1-((2R,6R)-2,6-dimethyl-4-(8-((3-methyl-4-((1-methyl-1H-benzo[d][1,2,3]triazol-5-yl)oxy)phenyl)amino)pyrimido[5,4-d]pyrimidin-2-yl)piperazin-1-yl)prop-2-en-1-one] had an IC50 of no less than 1000 nM. On the same count and under the same terms, the value for `C=CC(=O)N1CCN(c2ncc3ncnc(Nc4ccc(Oc5ccn6ncnc6c5)c(C)c4)c3c2F)CC1` [Compound 100, 1-(4-(4-((4-([1,2,4]triazolo[1,5-a]pyridin-7-yloxy)-3-methylphenyl)amino)-5-fluoropyrido[3,4-d]pyrimidin-6-yl)piperazin-1-yl)prop-2-en-1-one] was 500 to 1000 nM; that for `C=CC(=O)N1CCN(c2ncc3ncnc(Nc4ccc(Oc5ccc6c(c5)nnn6C)c(Cl)c4F)c3n2)CC1` [Compound 220, 1-(4-(8-((3-chloro-2-fluoro-4-((1-methyl-1H-benzo[d][1,2,3]triazol-5-yl)oxy)phenyl)amino)pyrimido[5,4-d]pyrimidin-2-yl)piperazin-1-yl)prop-2-en-1-one] was less than 50 nM; that for `C=CC(=O)N1CCN(c2ccc3ncnc(Nc4ccc(Oc5cnc6c(c5)ncn6C(F)F)c(C)c4)c3n2)C[C@H]1C` [Compound 249, (R)-1-(4-(4-((4-((3-(difluoromethyl)-3H-imidazo[4,5-b]pyridin-6-yl)oxy)-3-methylphenyl)amino)pyrido[3,2-d]pyrimidin-6-yl)-2-methylpiperazin-1-yl)prop-2-en-1-one] was less than 50 nM. Turning to `C=CC(=O)N[C@@H]1CCCN(c2ccc3ncnc(Nc4ccc(Oc5ccc6c(c5)nnn6C)c(C)c4F)c3n2)CC1` [Compound 283, (R)-N-(1-(4-((2-fluoro-3-methyl-4-((1-methyl-1H-benzo[d][1,2,3]triazol-5-yl)oxy)phenyl)amino)pyrido[3,2-d]pyrimidin-6-yl)azepan-4-yl)acrylamide], the half-inhibitory concentration (IC50) in assay [1] is no less than 1000 nM. In the case of `C=C(F)C(=O)N1CCN(c2ncc3ncnc(Nc4ccc(Oc5ccc6c(c5)nnn6C)c(C)c4)c3n2)C[C@H]1COC` [Compound 211, (S)-2-fluoro-1-(2-(methoxymethyl)-4-(8-((3-methyl-4-((1-methyl-1H-benzo[d][1,2,3]triazol-5-yl)oxy)phenyl)amino)pyrimido [5,4-d]pyrimidin-2-yl)piperazin-1-yl) prop-2-en-1-one], the half-inhibitory concentration (IC50) in assay [1] was no less than 1000 nM.

For `C=CC(=O)N[C@H]1[C@@H]2C[C@H]1CN(c1ncc3ncnc(Nc4ccc(Oc5ccc6c(c5)nnn6C)c(C)c4)c3n1)C2` [Compound 207, N-((1R,5S,6r)-3-(8-((3-methyl-4-((1-methyl-1H-benzo[d][1,2,3]triazol-5-yl)oxy)phenyl)amino)pyrimido[5,4-d]pyrimidin-2-yl)-3-azabicyclo[3.1.1]heptan-6-yl)acrylamide], in assay [1], the IC50 was 100 to 500 nM. Same read-out and setting: the value for `C=C(F)C(=O)N1CC2CCC1CN2c1ccc2ncnc(Nc3ccc(Oc4ccc5c(c4)nnn5C)c(C)c3)c2n1` (stereo not shown) [Compound 88, 2-fluoro-1-(5-(4-((3-methyl-4-((1-methyl-1H-benzo[d][1,2,3]triazol-5-yl)oxy)phenyl)amino)pyrido[3,2-d]pyrimidin-6-yl)-2,5-diazabicyclo[2.2.2]octan-2-yl)prop-2-en-1-one] was no less than 1000 nM; that for `C=CC(=O)N1CCN(c2ncc3ncnc(Nc4ccc(Oc5cc(F)c6c(c5)ncn6C)c(C)c4F)c3n2)C[C@H]1CC` [Compound 160, (R)-1-(2-ethyl-4-(8-((2-fluoro-4-((7-fluoro-1-methyl-1H-benzo[d]imidazol-5-yl)oxy)-3-methylphenyl)amino)pyrimido[5,4-d]pyrimidin-2-yl)piperazin-1-yl)prop-2-en-1-one] was less than 50 nM. Still for that read-out and setting: the value for `Cc1cc(Nc2ncnc3ccc(N4CCN(C(=O)/C=C/CF)[C@H](C)C4)nc23)ccc1Oc1ccc2c(c1)nnn2C` [Compound 364, (R,E)-4-fluoro-1-(2-methyl-4-(4-((3-methyl-4-((1-methyl-1H-benzo[d][1,2,3]triazol-5-yl)oxy)phenyl)amino)pyrido[3,2-d]pyrimidin-6-yl)piperazin-1-yl)but-2-en-1-one] was 100 to 500 nM.

In turn, `C=CC(=O)N[C@]1(C)CCCN(c2ccc3ncnc(Nc4ccc(Oc5ccc6c(c5)nnn6C)c(C)c4F)c3n2)C1` [Compound 303, (R)-N-(1-(4-((2-fluoro-3-methyl-4-((1-methyl-1H-benzo[d][1,2,3]triazol-5-yl)oxy)phenyl)amino)pyrido[3,2-d]pyrimidin-6-yl)-3-methylpiperidin-3-yl)acrylamide] showed an IC50 in assay [1] of less than 50 nM.

`C=CC(=O)N1CC[C@@H](N(C)c2ncc3ncnc(Nc4ccc(Oc5ccc6c(c5)nnn6C)c(C)c4)c3n2)C1` [Compound 128, (R)-1-(3-(methyl(8-((3-methyl-4-((1-methyl-1H-benzo[d][1,2,3]triazol-5-yl)oxy)phenyl)amino)pyrimido[5,4-d]pyrimidin-2-yl)amino)pyrrolidin-1-yl)prop-2-en-1-one]: the half-inhibitory concentration (IC50) in assay [1] is 100 to 500 nM. As for `C=CC(=O)N1[C@H](C)CN(c2ccc3ncnc(Nc4ccc(Oc5ccc6c(c5)nnn6C)c(C)c4)c3n2)C[C@H]1C` [Compound 248, 1-((2R,6R)-2,6-dimethyl-4-(4-((3-methyl-4-((1-methyl-1H-benzo[d][1,2,3]triazol-5-yl)oxy)phenyl)amino)pyrido[3,2-d]pyrimidin-6-yl)piperazin-1-yl)prop-2-en-1-one], the IC50 in assay [1] is no less than 1000 nM. Same read-out and setting: the value for `C=CC(=O)N1CCCN(c2ncc3ncnc(Nc4ccc(Oc5ccc6c(c5)nnn6C)c(C)c4)c3n2)C[C@@H]1C` [Compound 165, (S)-1-(2-methyl-4-(8-((3-methyl-4-((1-methyl-1H-benzo[d][1,2,3]triazol-5-yl)oxy)phenyl)amino)pyrimido[5,4-d]pyrimidin-2-y1)-1,4-diazepan-1-yl)prop-2-en-1-one] was no less than 1000 nM. On to `C=CC(=O)N[C@H]1CCCN(c2ccc3ncnc(Nc4ccc(Oc5ccc6c(c5)nnn6C)c(C)c4F)c3n2)CC1` [Compound 282, (S)-N-(1-(4-((2-fluoro-3-methyl-4-((1-methyl-1H-benzo[d][1,2,3]triazol-5-yl)oxy)phenyl)amino)pyrido[3,2-d]pyrimidin-6-yl)azepan-4-yl)acrylamide], for which the half-inhibitory concentration (IC50) in assay [1] is 500 to 1000 nM. On the same count and under the same terms, next, `C=CC(=O)N1CC[C@@H](Oc2ncc3ncnc(Nc4ccc(Oc5cc(F)c6c(c5)ncn6C)c(C)c4)c3n2)C1` [Compound 385, (R)-1-(3-((8-((4-((7-fluoro-1-methyl-1H-benzo[d]imidazol-5-yl)oxy)-3-methylphenyl)amino)pyrimido[5,4-d]pyrimidin-2-yl)oxy)pyrrolidin-1-yl)prop-2-en-1-one]: 100 to 500 nM; `C=CC(=O)N1CC(N(C)c2ncc3ncnc(Nc4ccc(Oc5ccc6c(c5)nnn6C)c(C)c4F)c3n2)C1` [Compound 69, 1-(3-((8-((2-fluoro-3-methyl-4-((1-methyl-1H-benzo[d][1,2,3]triazol-5-yl)oxy)phenyl)amino)pyrimido[5,4-d]pyrimidin-2-yl)(methyl)amino)azetidin-1-yl)prop-2-en-1-one]: less than 50 nM.
